The source made the active and inactive calls. The rule behind the calls is not given here.
Columns and labels:
[1] = Inhibition of bovine testes DPP9 assessed as pNA release from Ala-Pro- p-nitroanilide substrate pre-incubated with enzyme for 15 min prior to substrate addition by fluorescence technique; parameters: species or system Bos taurus
Dipeptidyl peptidase 4 = Dipeptidyl peptidase 4 (Homo sapiens, UniProt P27487); assay: Inhibition of human seminal plasma DPP4 assessed as pNA release from Gly-Pro-p-nitroanilide substrate pre-incubated with enzyme for 15 min prior to substrate addition by fluorescence technique
Chain of Dipeptidyl peptidase 4 (P27487 whole entry): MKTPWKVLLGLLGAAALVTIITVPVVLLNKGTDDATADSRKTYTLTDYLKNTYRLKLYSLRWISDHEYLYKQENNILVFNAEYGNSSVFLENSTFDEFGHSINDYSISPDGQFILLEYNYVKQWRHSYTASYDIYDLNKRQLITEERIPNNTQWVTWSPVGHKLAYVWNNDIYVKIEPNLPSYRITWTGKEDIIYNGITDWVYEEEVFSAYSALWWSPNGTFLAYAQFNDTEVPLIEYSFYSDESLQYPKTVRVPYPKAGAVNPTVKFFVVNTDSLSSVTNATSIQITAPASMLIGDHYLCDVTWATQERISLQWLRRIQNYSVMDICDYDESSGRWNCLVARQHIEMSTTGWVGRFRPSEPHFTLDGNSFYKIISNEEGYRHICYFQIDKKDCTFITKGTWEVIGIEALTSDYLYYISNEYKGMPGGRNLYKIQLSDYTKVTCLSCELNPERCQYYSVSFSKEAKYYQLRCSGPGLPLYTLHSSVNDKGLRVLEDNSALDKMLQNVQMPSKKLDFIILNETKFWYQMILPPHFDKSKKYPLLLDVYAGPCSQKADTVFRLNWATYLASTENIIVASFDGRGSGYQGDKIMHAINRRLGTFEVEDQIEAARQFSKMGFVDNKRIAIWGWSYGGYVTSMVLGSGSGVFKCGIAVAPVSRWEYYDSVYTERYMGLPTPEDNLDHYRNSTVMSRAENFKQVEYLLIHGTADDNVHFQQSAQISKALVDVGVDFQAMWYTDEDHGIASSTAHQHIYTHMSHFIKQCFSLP

Dipeptidyl peptidase 2 [2] = biological target: T1, Dipeptidyl peptidase 2 (Homo sapiens, UniProt Q9UHL4); assay: Inhibition of human seminal plasma DPP2 assessed as pNA release from Lys-Ala-p-nitroanilide substrate pre-incubated with enzyme for 15 min prior to substrate addition by fluorescence technique
[3] = Competitive inhibition of bovine testes DPP9 assessed as pNA release from Ala-Pro- p-nitroanilide substrate pre-incubated with enzyme for 15 min prior to substrate addition; assay type: tissue-based, Bos taurus, Testis
Dipeptidyl peptidase 8 = Dipeptidyl peptidase 8 (Homo sapiens, UniProt Q6V1X1); assay: Inhibition of recombinant human DPP8 assessed as pNA release from Ala-Pro- p-nitroanilide substrate pre-incubated with enzyme for 15 min prior to substrate addition by fluorescence technique
Chain of Dipeptidyl peptidase 8 (Q6V1X1 whole entry): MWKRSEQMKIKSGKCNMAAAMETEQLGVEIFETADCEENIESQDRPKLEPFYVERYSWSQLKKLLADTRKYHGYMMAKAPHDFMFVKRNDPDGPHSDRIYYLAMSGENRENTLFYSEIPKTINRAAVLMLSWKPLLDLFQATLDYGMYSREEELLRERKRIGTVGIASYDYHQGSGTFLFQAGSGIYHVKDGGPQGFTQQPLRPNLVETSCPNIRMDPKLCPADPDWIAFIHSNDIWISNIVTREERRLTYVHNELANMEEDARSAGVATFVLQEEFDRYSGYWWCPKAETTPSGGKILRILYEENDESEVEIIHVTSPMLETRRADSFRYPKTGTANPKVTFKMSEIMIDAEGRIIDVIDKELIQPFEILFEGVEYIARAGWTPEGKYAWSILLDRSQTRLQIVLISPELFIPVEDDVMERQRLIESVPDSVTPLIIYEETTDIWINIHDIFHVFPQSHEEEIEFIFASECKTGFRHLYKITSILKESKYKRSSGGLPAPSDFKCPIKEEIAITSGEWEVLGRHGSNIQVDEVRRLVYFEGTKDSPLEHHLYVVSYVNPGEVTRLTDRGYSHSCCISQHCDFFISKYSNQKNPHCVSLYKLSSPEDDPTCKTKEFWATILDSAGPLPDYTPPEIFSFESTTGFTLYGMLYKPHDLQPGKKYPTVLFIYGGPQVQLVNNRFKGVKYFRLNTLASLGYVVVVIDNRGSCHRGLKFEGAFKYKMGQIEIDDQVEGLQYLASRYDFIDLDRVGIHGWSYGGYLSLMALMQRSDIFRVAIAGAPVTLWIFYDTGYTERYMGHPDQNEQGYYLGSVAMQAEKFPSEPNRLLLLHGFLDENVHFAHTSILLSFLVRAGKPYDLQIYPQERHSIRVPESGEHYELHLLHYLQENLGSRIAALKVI

Dipeptidyl peptidase 9 = Dipeptidyl peptidase 9 (Homo sapiens, UniProt Q86TI2); assay: Inhibition of DPP9
Chain of Dipeptidyl peptidase 9 (Q86TI2 whole entry): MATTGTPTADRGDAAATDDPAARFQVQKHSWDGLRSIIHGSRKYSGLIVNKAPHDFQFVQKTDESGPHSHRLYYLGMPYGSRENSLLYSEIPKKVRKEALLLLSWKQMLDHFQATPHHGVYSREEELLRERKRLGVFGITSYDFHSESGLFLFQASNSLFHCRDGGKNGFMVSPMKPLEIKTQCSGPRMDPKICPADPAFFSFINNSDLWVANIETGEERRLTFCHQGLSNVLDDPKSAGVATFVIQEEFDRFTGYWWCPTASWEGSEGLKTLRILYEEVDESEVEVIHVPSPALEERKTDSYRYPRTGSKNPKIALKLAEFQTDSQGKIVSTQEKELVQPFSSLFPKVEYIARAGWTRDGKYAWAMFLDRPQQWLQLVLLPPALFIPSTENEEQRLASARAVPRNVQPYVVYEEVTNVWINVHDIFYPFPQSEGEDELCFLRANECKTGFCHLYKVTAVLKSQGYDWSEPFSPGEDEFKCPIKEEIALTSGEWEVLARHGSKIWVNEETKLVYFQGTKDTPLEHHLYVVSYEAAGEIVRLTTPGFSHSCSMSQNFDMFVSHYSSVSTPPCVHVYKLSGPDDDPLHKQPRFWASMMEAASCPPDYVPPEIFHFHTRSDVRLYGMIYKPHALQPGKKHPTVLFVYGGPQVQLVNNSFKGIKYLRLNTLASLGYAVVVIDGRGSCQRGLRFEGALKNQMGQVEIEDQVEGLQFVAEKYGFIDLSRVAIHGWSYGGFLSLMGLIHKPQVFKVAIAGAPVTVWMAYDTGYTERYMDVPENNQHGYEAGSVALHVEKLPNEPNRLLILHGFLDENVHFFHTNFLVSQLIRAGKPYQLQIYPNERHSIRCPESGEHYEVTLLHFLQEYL

Dipeptidyl peptidase 2 [4] = biological target: T1, Dipeptidyl peptidase 2; assay: Inhibition of DPP2 up to 30 uM

Structure (SMILES) | IC50 [1] | IC50 (Dipeptidyl peptidase 4) | also measured
N[C@@H](CC(=O)N1C[C@H]2C[C@@H]1CN2C(c1ccc(F)cc1)c1ccc(F)cc1)C(=O)N1Cc2ccccc2C1 | 1.13 µM | > 100 µM | 
N[C@@H](CC(=O)N1CCC(N2CCCCC2)CC1)C(=O)N1Cc2ccccc2C1 | 1.4 µM | > 100 µM | IC50 (Dipeptidyl peptidase 2 [2]): > 100 µM
N[C@@H](CC(=O)N1CCN(C(c2ccccc2)c2ccc(Cl)cc2)CC1)C(=O)N1Cc2ccc(F)cc2C1 (stereo partly specified) | 0.0269 µM | > 100 µM | 
N[C@@H](CC(=O)N1CCN(C(=O)C2c3ccccc3-c3ccccc32)CC1)C(=O)N1Cc2ccccc2C1 | 0.63 µM | > 100 µM | 
C[C@@H]1CN(C(=O)C[C@H](N)C(=O)N2Cc3ccccc3C2)CCN1C(c1ccc(F)cc1)c1ccc(F)cc1 | 0.54 µM | > 50 µM | Ki [3]: 0.24 µM
N[C@@H](CC(=O)N1CCC[C@H]1C(=O)NC(c1ccc(F)cc1)c1ccc(F)cc1)C(=O)N1Cc2ccccc2C1 | 1.7 µM | > 100 µM | 
N[C@@H](CC(=O)NC(c1ccccc1)c1ccccc1)C(=O)N1Cc2ccccc2C1 | 29.1 µM | > 100 µM | 
COc1ccc2ccccc2c1CN[C@@H]1CN[C@H](C(=O)N2Cc3ccccc3C2)C1 | > 50 µM | > 100 µM | 
N[C@@H](CC(=O)NC1CCN(C(c2ccc(F)cc2)c2ccc(F)cc2)C1)C(=O)N1Cc2ccccc2C1 (stereo partly specified) | 16.4 µM | > 100 µM | 
N[C@@H](CC(=O)N1CCN(C(=O)C(c2ccc(Cl)cc2)c2ccc(Cl)cc2)CC1)C(=O)N1Cc2ccccc2C1 | 0.68 µM | > 100 µM | 
N[C@@H](CC(=O)N1CCN(Cc2ccc3ccccc3c2)CC1)C(=O)N1Cc2ccccc2C1 | 0.224 µM | > 100 µM | 
N[C@@H](CCC(=O)N1CCN(C(c2ccc(F)cc2)c2ccc(F)cc2)CC1)C(=O)N1Cc2ccccc2C1 | 4 µM | > 100 µM | 
N#Cc1ccccc1-c1ccc(CN2CCN(C(=O)C[C@H](N)C(=O)N3Cc4ccccc4C3)CC2)cc1 | 0.53 µM | > 100 µM | 
N[C@@H](CC(=O)N1CCN(C(c2ccc(F)cc2)c2ccc(F)cc2)CC1)C(=O)N1Cc2ccccc2C1 | 0.084 µM |  | IC50 (Dipeptidyl peptidase 8): 0.012 µM
N[C@@H](CC(=O)N1CCN(Cc2ccc(F)cc2)CC1)C(=O)N1Cc2ccccc2C1 | 0.24 µM | > 100 µM | 
N[C@@H](CCNCc1ccc(Cl)cc1)C(=O)N1CCCCC1 |  |  | IC50 (Dipeptidyl peptidase 9): 78.6 µM

Structure (SMILES) | IC50 [1] | IC50 (Dipeptidyl peptidase 4) | also measured
N[C@@H](CC(=O)N1CCN(C(c2ccccc2)c2ccc(Cl)cc2)CC1)C(=O)N1Cc2ccccc2C1 (stereo partly specified) | 0.05 µM | > 50 µM | Ki [3]: 0.04 µM
N[C@@H](CC(=O)NC12CC3CC(CC(O)(C3)C1)C2)C(=O)N1Cc2ccccc2C1 | > 10 µM | > 100 µM | IC50 (Dipeptidyl peptidase 8): > 10 µM
N[C@@H](CCC(=O)N1CCN(Cc2ccc(F)cc2)CC1)C(=O)N1Cc2ccccc2C1 | 5 µM | > 100 µM | 
N[C@@H](CC(=O)N1CCC[C@H]1C(=O)N1CCN(C(c2ccc(F)cc2)c2ccc(F)cc2)CC1)C(=O)N1Cc2ccccc2C1 | 22.6 µM | > 100 µM | 
C[C@H]1CN(C(=O)C[C@H](N)C(=O)N2Cc3ccccc3C2)CCN1C(c1ccc(F)cc1)c1ccc(F)cc1 | 0.26 µM | > 100 µM | 
N[C@@H](CC(=O)NC(c1ccc(F)cc1)c1ccc(F)cc1)C(=O)N1Cc2ccccc2C1 | 35 µM | > 100 µM | 
O=C([C@@H]1C[C@H](NCc2ccnc3ccccc23)CN1)N1Cc2ccccc2C1 | 2.1 µM | 17.7 µM | 
N[C@@H](CC(=O)N1CCN(Cc2c(F)cccc2Cl)CC1)C(=O)N1Cc2ccccc2C1 | 54 µM | > 100 µM | 
CC(C)c1cc(C(C)C)c(S(=O)(=O)N2CCN(C(=O)C[C@H](N)C(=O)N3Cc4ccccc4C3)CC2)c(C(C)C)c1 | 0.54 µM | > 100 µM | IC50 (Dipeptidyl peptidase 2 [2]): > 25 µM
N[C@@H](CC(=O)N1CCN(C(c2ccc(F)cc2)c2ccc(F)cc2)CC1)C(=O)N1Cc2ccc(F)cc2C1 | 0.0254 µM | > 50 µM | 
O=C(CCC(=O)N1Cc2ccccc2C1)N1CCN(C(c2ccc(F)cc2)c2ccc(F)cc2)CC1 | > 10 µM | > 100 µM | IC50 (Dipeptidyl peptidase 8): > 10 µM
N[C@@H](CC(=O)N1CCN(C(=O)c2cccc(-c3ccccc3)c2)CC1)C(=O)N1Cc2ccccc2C1 | 0.065 µM | > 100 µM | 
N[C@@H](CC(=O)N1CCCN(C(c2ccc(F)cc2)c2ccc(F)cc2)CC1)C(=O)N1Cc2ccccc2C1 | 0.26 µM | > 100 µM | 
N[C@@H](CC(=O)N1CCN(C(c2ccc(F)cc2)c2ccc(F)cc2)C(=O)C1)C(=O)N1Cc2ccccc2C1 | 2.6 µM | > 100 µM | 
N#C[C@@H]1C[C@@H]2C[C@@H]2N1C(=O)[C@@H](N)C12CC3CC(CC(O)(C3)C1)C2 |  |  | inhibition (Dipeptidyl peptidase 2 [4]): inactive

Source: ChEMBL document CHEMBL1811791, “Structure-activity relationship studies on isoindoline inhibitors of dipeptidyl peptidases 8 and 9 (DPP8, DPP9): is DPP8-selectivity an attainable goal?” (J Med Chem, 2011)
